# Experimental data taken from patent publication US20230144436A1, “MUSCLE TARGETING COMPLEXES AND USES THEREOF FOR TREATING MYOTONIC DYSTROPHY” (Dyne Therapeutics, Inc., priority 2020, published 2023).
# System: DMPK
# Assay: DMPK knockdown by transfected antisense oligonucleotides in DM1 C15 myotubes at 0.5 nM and 50 nM
# Format: cell-based
# Details: 0.5 nM oligonucleotide, 72 hours, qPCR, relative to vehicle control
# Description: Two hundred and thirty-six oligonucleotides for targeting DMPK were generated using in silico analysis. Each individual oligonucleotide was evaluated for their ability to target DMPK in cellulo at two doses—0.5 nM (low dose) and 50 nM (high dose).
# Briefly, DM1 C15 immortalized myoblasts were cultured in T-75 flasks until near confluency (˜80% confluent). Myoblasts were then disrupted with trypsin and seeded into 96-well microplates at a density of 50,000 cells/well. Cells were allowed to recover overnight before the growth media was washed out and replaced with a no-serum media to induce differentiation into myotubes. Differentiation proceeded for seven days prior to treatment with DMPK-targeting oligonucleotides.
# On day seven following induction of differentiation, DM1 C15 myotubes were transfected with an individual oligonucleotide using 0.3 μL of Lipofectamine MessengerMax per well. All oligonucleotides were tested at both 0.5 nM and 50 nM final concentrations in biological triplicates. After treatment with oligonucleotides, cells were incubated for 72 hours prior to being harvested for total RNA. cDNA was synthesized from the total RNA extracts and qPCR was performed to determine expression levels of DMPK in technical quadruplicate. All qPCR data were analyzed using a traditional […] method and were normalized to a plate-based negative control that comprised cells treated with vehicle control (0.3 μL/well Lipofectamine MessengerMax without any oligonucleotide). Results from these experiments are shown in Table 10. ‘Normalized DMPK Remaining’ for each antisense oligonucleotide in Table 10 refers to the expression level of DMPK in cell treated with said antisense oligonucleotide relative to the negative control that comprised cells treated with vehicle control (wherein the expression level of the negative control has been normalized to equal 1.00)
row,Substance,Percent DMPK Reduction
1,327 (CCCAAACUUGCUCAGCAGUG; chemistry not given here) [compound 327],37.02%
2,328 (CUUGCCAUAGGUCUCCGCCG; chemistry not given here) [compound 328],27.04%
3,329 (UACACCUGGCCCGUCUGCUU; chemistry not given here) [compound 329],31.10%
4,330 (CCAGCGCCCACCAGUCACAC; chemistry not given here) [compound 330],36.17%
5,331 (GGCCUCAGCCUGGCCGAAAG; chemistry not given here) [compound 331],14.49%
6,332 (AAUCUCCGCCAGGUAGAAGC; chemistry not given here) [compound 332],35.85%
7,333 (AUGGCAUACACCUGGCCCGU; chemistry not given here) [compound 333],14.31%
8,334 (CCAUGACAAUCUCCGCCAGG; chemistry not given here) [compound 334],34.53%
9,335 (UCCCCAAACUUGCUCAGCAG; chemistry not given here) [compound 335],5.73%
10,336 (GAUGUUGUCGGGUUUGAUGU; chemistry not given here) [compound 336],10.06%
11,337 (GUUUGCCCAUCCACGUCAGG; chemistry not given here) [compound 337],34.36%
12,338 (CGGACGGCCCGGCUUGCUGC; chemistry not given here) [compound 338],5.42%
13,339 (CUCCGCCAGGUAGAAGCGCG; chemistry not given here) [compound 339],30.22%
14,340 (GUACAGGUAGUUCUCAUCCU; chemistry not given here) [compound 340],31.52%
15,341 (AGGGCGUCUGCCCAUAGAAC; chemistry not given here) [compound 341],13.23%
16,342 (UGGCCACAGCGGUCCAGCAG; chemistry not given here) [compound 342],29.59%
17,343 (CGUAGUUGACUGGCGAAGUU; chemistry not given here) [compound 343],25.26%
18,344 (UCUGCCGCAGGGACAGCCGC; chemistry not given here) [compound 344],22.97%

# Same assay, conditions: 0.5 nM oligonucleotide, 72 hours, qPCR, relative to vehicle control = 1.00
row,Substance,Normalized DMPK Remaining
1,327 (CCCAAACUUGCUCAGCAGUG; chemistry not given here) [compound 327],0.63
2,328 (CUUGCCAUAGGUCUCCGCCG; chemistry not given here) [compound 328],0.73
3,329 (UACACCUGGCCCGUCUGCUU; chemistry not given here) [compound 329],0.69
4,330 (CCAGCGCCCACCAGUCACAC; chemistry not given here) [compound 330],0.64
5,331 (GGCCUCAGCCUGGCCGAAAG; chemistry not given here) [compound 331],0.86
6,332 (AAUCUCCGCCAGGUAGAAGC; chemistry not given here) [compound 332],0.64
7,333 (AUGGCAUACACCUGGCCCGU; chemistry not given here) [compound 333],0.86
8,334 (CCAUGACAAUCUCCGCCAGG; chemistry not given here) [compound 334],0.65
9,335 (UCCCCAAACUUGCUCAGCAG; chemistry not given here) [compound 335],0.94
10,336 (GAUGUUGUCGGGUUUGAUGU; chemistry not given here) [compound 336],0.90
11,337 (GUUUGCCCAUCCACGUCAGG; chemistry not given here) [compound 337],0.66
12,338 (CGGACGGCCCGGCUUGCUGC; chemistry not given here) [compound 338],0.95
13,339 (CUCCGCCAGGUAGAAGCGCG; chemistry not given here) [compound 339],0.70
14,340 (GUACAGGUAGUUCUCAUCCU; chemistry not given here) [compound 340],0.68
15,341 (AGGGCGUCUGCCCAUAGAAC; chemistry not given here) [compound 341],0.87
16,342 (UGGCCACAGCGGUCCAGCAG; chemistry not given here) [compound 342],0.70
17,343 (CGUAGUUGACUGGCGAAGUU; chemistry not given here) [compound 343],0.75
18,344 (UCUGCCGCAGGGACAGCCGC; chemistry not given here) [compound 344],0.77

# Same assay, conditions: 50 nM oligonucleotide, 72 hours, qPCR, relative to vehicle control
row,Substance,Percent DMPK Reduction
1,327 (CCCAAACUUGCUCAGCAGUG; chemistry not given here) [compound 327],61.78%
2,328 (CUUGCCAUAGGUCUCCGCCG; chemistry not given here) [compound 328],71.05%
3,329 (UACACCUGGCCCGUCUGCUU; chemistry not given here) [compound 329],57.43%
4,330 (CCAGCGCCCACCAGUCACAC; chemistry not given here) [compound 330],70.96%
5,331 (GGCCUCAGCCUGGCCGAAAG; chemistry not given here) [compound 331],64.80%
6,332 (AAUCUCCGCCAGGUAGAAGC; chemistry not given here) [compound 332],65.27%
7,333 (AUGGCAUACACCUGGCCCGU; chemistry not given here) [compound 333],49.63%
8,334 (CCAUGACAAUCUCCGCCAGG; chemistry not given here) [compound 334],76.46%
9,335 (UCCCCAAACUUGCUCAGCAG; chemistry not given here) [compound 335],44.67%
10,336 (GAUGUUGUCGGGUUUGAUGU; chemistry not given here) [compound 336],42.42%
11,337 (GUUUGCCCAUCCACGUCAGG; chemistry not given here) [compound 337],54.49%
12,338 (CGGACGGCCCGGCUUGCUGC; chemistry not given here) [compound 338],30.41%
13,339 (CUCCGCCAGGUAGAAGCGCG; chemistry not given here) [compound 339],78.14%
14,340 (GUACAGGUAGUUCUCAUCCU; chemistry not given here) [compound 340],65.57%
15,341 (AGGGCGUCUGCCCAUAGAAC; chemistry not given here) [compound 341],58.98%
16,342 (UGGCCACAGCGGUCCAGCAG; chemistry not given here) [compound 342],69.44%
17,343 (CGUAGUUGACUGGCGAAGUU; chemistry not given here) [compound 343],61.52%
18,344 (UCUGCCGCAGGGACAGCCGC; chemistry not given here) [compound 344],82.10%

# Same assay, conditions: 50 nM oligonucleotide, 72 hours, qPCR, relative to vehicle control = 1.00
row,Substance,Normalized DMPK Remaining
1,327 (CCCAAACUUGCUCAGCAGUG; chemistry not given here) [compound 327],0.38
2,328 (CUUGCCAUAGGUCUCCGCCG; chemistry not given here) [compound 328],0.29
3,329 (UACACCUGGCCCGUCUGCUU; chemistry not given here) [compound 329],0.43
4,330 (CCAGCGCCCACCAGUCACAC; chemistry not given here) [compound 330],0.29
5,331 (GGCCUCAGCCUGGCCGAAAG; chemistry not given here) [compound 331],0.35
6,332 (AAUCUCCGCCAGGUAGAAGC; chemistry not given here) [compound 332],0.35
7,333 (AUGGCAUACACCUGGCCCGU; chemistry not given here) [compound 333],0.50
8,334 (CCAUGACAAUCUCCGCCAGG; chemistry not given here) [compound 334],0.24
9,335 (UCCCCAAACUUGCUCAGCAG; chemistry not given here) [compound 335],0.55
10,336 (GAUGUUGUCGGGUUUGAUGU; chemistry not given here) [compound 336],0.58
11,337 (GUUUGCCCAUCCACGUCAGG; chemistry not given here) [compound 337],0.46
12,338 (CGGACGGCCCGGCUUGCUGC; chemistry not given here) [compound 338],0.70
13,339 (CUCCGCCAGGUAGAAGCGCG; chemistry not given here) [compound 339],0.22
14,340 (GUACAGGUAGUUCUCAUCCU; chemistry not given here) [compound 340],0.34
15,341 (AGGGCGUCUGCCCAUAGAAC; chemistry not given here) [compound 341],0.41
16,342 (UGGCCACAGCGGUCCAGCAG; chemistry not given here) [compound 342],0.31
17,343 (CGUAGUUGACUGGCGAAGUU; chemistry not given here) [compound 343],0.38
18,344 (UCUGCCGCAGGGACAGCCGC; chemistry not given here) [compound 344],0.18
